Our source for the Ki, EC50 and Emax values is patent publication US8937084B2, “Nitrogen containing morphinan derivatives and the use thereof” (Purdue Pharma L.P., priority 2012, dated 2015).

Assay [1] concerns the target T1, μ-opioid receptor (Homo sapiens (Human), UniProt P35372). Briefly: μ-opioid receptor radioligand dose-displacement binding assay ([3H]-diprenorphine). Here is the method: μ-Opioid Receptor Binding Assay Procedures: Radioligand dose-displacement binding assays for μ-opioid receptors used 0.3 nM [^3H]-diprenorphine (Perkin Elmer, Shelton, Conn.), with […] membrane protein/well in a final volume of 500 μl binding buffer (10 mM MgCl2, 1 mM EDTA, 5% DMSO, 50 mM HEPES, pH 7.4). Reactions were carried out in the absence or presence of increasing concentrations of unlabeled naloxone. All reactions were conducted in 96-deep well polypropylene plates for 2 hours at room temperature. Binding reactions were terminated by rapid filtration onto 96-well Unifilter GF/C filter plates (Perkin Elmer, Shelton, Conn.), presoaked in 0.5% polyethylenimine using a 96-well tissue harvester (Perkin Elmer, Shelton, Conn.) followed by performing three filtration washes with 500 μl of ice-cold binding buffer. Filter plates were subsequently dried at 50° C. for 2-3 hours. BetaScint scintillation cocktail (Perkin Elmer, Shelton, Conn.) was added (50 μl/well), and plates were counted using a Packard Top-Count for 1 min/well. The data were analyzed using the one-site competition curve fitting functions in GraphPad PRISM™ v. 3.0 or higher (San Diego, Calif.), or an in-house function for one-site competition curve-fitting.
(§1) In TABLE 1, binding affinity of certain Compounds of the Invention to the μ-, δ- and κ-opioid receptors was determined as described above.

The target in assay [2] is recombinant human kappa opioid receptor (κ) (Homo sapiens (Human), UniProt P41145). Briefly: κ-opioid receptor radioligand dose-displacement binding assay ([3H]-U69,593). On the procedure: κ-Opioid Receptor Binding Assay Procedures: Membranes from HEK-293 cells, CHO or U-2 OS cells expressing the recombinant human kappa opioid receptor (κ) (cloned in house) were prepared by lysing cells in ice cold hypotonic buffer (2.5 mM MgCl2, 50 mM HEPES, pH 7.4) (10 mL/10 cm dish) followed by homogenization with a tissue grinder/Teflon pestle. Membranes were collected by centrifugation at 30,000×g for 15 min at 4° C. and pellets were resuspended in hypotonic buffer to a final concentration of 1-3 mg/mL. Protein concentrations were determined using the BioRad protein assay reagent with bovine serum albumen as standard. Aliquots of κ receptor membranes were stored at −80° C.
Radioligand dose displacement assays used 0.4 nM [^3H]-U69,593 (GE Healthcare, Piscataway, N.J.; 40 Ci/mmole) with 15 μg membrane protein (recombinant κ opioid receptor expressed in HEK 293 cells; in-house prep) in a final volume of 200 μl binding buffer (5% DMSO, 50 mM Trizma base, pH 7.4). Non-specific binding was determined in the presence of 10 μM unlabeled naloxone or U69,593. All reactions were performed in 96-well polypropylene plates for 1 hour at a temperature of about 25° C. Binding reactions were terminated by rapid filtration onto 96-well Unifilter GF/C filter plates (Perkin Elmer, Shelton, Conn.) presoaked in 0.5% polyethylenimine (Sigma). Harvesting was performed using a 96-well tissue harvester (Perkin Elmer, Shelton, Conn.) followed by five filtration washes with 200 μl ice-cold binding buffer. Filter plates were subsequently dried at 50° C. for 1-2 hours. Fifty μl/well scintillation cocktail (Perkin Elmer, Shelton, Conn.) was added and plates were counted in a Packard Top-Count for 1 min/well.
as §1

The target of assay [3] is T1, μ-opioid receptor. Nature of the assay: μ-opioid receptor [35S]GTPγS functional assay, HEK-293 or CHO cells. The class given is biochemical. Here is the method: μ-Opioid Receptor Functional Assay Procedures: [^35S]GTPγS functional assays were conducted using freshly thawed μ-receptor membranes prepared in-house from a cell line expressing recombinant μ opioid receptor in a HEK-293, CHO or U-2 OS cell background, or purchased from a commercial source (Perkin Elmer, Shelton, Conn.; or DiscovRx, Fremont, Calif.). Assay reactions were prepared by sequentially adding the following reagents to binding buffer (100 mM NaCl, 10 mM MgCl2, 20 mM HEPES, pH 7.4) on ice (final concentrations indicated): membrane protein (0.026 mg/mL), saponin ([…]), GDP ([…]) and [^35S]GTPγS (0.20 nM; Perkin Elmer, Shelton, Conn.). The prepared membrane solution (190 μl/well) was transferred to 96-shallow well polypropylene plates containing 10 μl of 20× concentrated stock solutions of the agonist [D-Ala^2, N-methyl-Phe^4 Gly-ol^5]-enkephalin (DAMGO) prepared in dimethyl sulfoxide (DMSO). Plates were incubated for 30 min at about 25° C. with shaking. Reactions were terminated by rapid filtration onto 96-well Unifilter GF/B filter plates (Perkin Elmer, Shelton, Conn.) using a 96-well tissue harvester (Perkin Elmer, Shelton, Conn.) followed by three filtration washes with 200 μl of ice-cold wash buffer (10 mM NaH2PO4, 10 mM Na2HPO4, pH 7.4). Filter plates were subsequently dried at 50° C. for 2-3 hours. BetaScint scintillation cocktail (Perkin Elmer, Shelton, Conn.) was added (50 μl/well) and plates were counted using a Packard Top-Count for 1 min/well. Data were analyzed using the sigmoidal dose-response curve fitting functions in GraphPad PRISM v. 3.0, or an in-house function for non-linear, sigmoidal dose-response curve-fitting.
μ-Opioid Receptor Functional Data: μ GTP EC50 is the concentration of a compound providing 50% of the maximal response for the compound at a μ-opioid receptor.
μ GTP Emax (%) is the maximal effect elicited by a compound relative to the effect elicited by DAMGO, a standard μ agonist. Generally, the μ GTP Emax (%) value measures the efficacy of a compound to treat or prevent pain or other Conditions.
(§2) In TABLE 2, activity response of certain Compounds of the Invention to the μ-, δ- and κ-opioid receptors was determined as described above for functional assays using HEK-293 or CHO cells.

Another assay has as its target κ opioid receptor (Homo sapiens (Human), UniProt P41145). Briefly: κ-opioid receptor [35S]GTPγS functional assay, HEK-293 or CHO cells. It counts as biochemical. Here is the method:
κ-Opioid Receptor Functional Assay Procedures: Functional [^35S]GTPγS binding assays were conducted as follows. κ opioid receptor membrane solution was prepared by sequentially adding final concentrations of 0.026 μg/μl κ membrane protein (in-house), 10 μg/mL saponin, 3 μM GDP and 0.20 nM [^35S]GTPγS to binding buffer (100 mM NaCl, 10 mM MgCl2, 20 mM HEPES, pH 7.4) on ice. The prepared membrane solution (190 μl/well) was transferred to 96-shallow well polypropylene plates containing 10 μl of 20× concentrated stock solutions of agonist prepared in DMSO. Plates were incubated for 30 min at a temperature of about 25° C. with shaking. Reactions were terminated by rapid filtration onto 96-well Unifilter GF/B filter plates (Perkin Elmer, Shelton, Conn.) using a 96-well tissue harvester (Packard) and followed by three filtration washes with 200 μl ice-cold binding buffer (10 mM NaH2PO4, 10 mM Na2HPO4, pH 7.4). Filter plates were subsequently dried at 50° C. for 2-3 hours. Fifty μl/well scintillation cocktail (Perkin Elmer, Shelton, Conn.) was added and plates were counted in a Packard Top-Count for 1 min/well.
κ-Oploid Receptor Functional Data: κ GTP EC50 is the concentration of a compound providing 50% of the maximal response for the compound at a K receptor.
κ GTP Emax (%) is the maximal effect elicited by a compound relative to the effect elicited by U69,593.
as §2

Each structure is given as a SMILES string.

Usually Ki stands for the dissociation constant of the complex between target and ligand, obtained from inhibition or displacement. What is called EC50 is the concentration needed to bring the measured effect to its halfway point. As usually defined, the Emax is the maximal effect, on the per cent scale that the assay sets. `O=C1C[C@]23CCN(CC4CC4)[C@H](Cc4ccc(O)cc42)C3=CN1Cc1ccc(O)cc1` [Compound 6, (5R,10bR)-13-(cyclopropylmethyl)-9-hydroxy-3-(4-hydroxybenzyl)-5,6-dihydro-1H-5,10b-(epiminoethano)benzo[f]isoquinolin-2(3H)-one]: the Ki on μ-opioid receptor [1] worked out at 22.8 ± 8.32 nM; in assay [2] it was 1.27 ± 0.19 nM. The figures for the EC50 on μ-opioid receptor [3] (GTPγS) and at κ opioid receptor (GTPγS) were 0.0575 ± 0.0155 µM and 0.0306 ± 0.00675 µM, respectively. Also, the maximal response (Emax) on μ-opioid receptor [3] (relative to DAMGO) amounted to 28%; at κ opioid receptor (relative to U69,593), 41.7%.
